From patent publication US20030050233A1, “Peptide combination for the treatment of cancer” (DABUR ONCOLOGY PLC, priority 2001, published 2003) come the findings set out here.

Where a SMILES comes first, the peptide text is derived from it. [ ]: non-standard residue; d: D form. The star is where a group is joined. Ac5c = NC1(C(=O)O)CCCC1; Aib = CC(C)(N)C(=O)O; Butyryl = CCCC(=O)*

What all share (format): cell-based
For assay [1], the system named is cAMP in breast cancer cells (MF7). The assay is described as follows: cAMP levels by enzyme linked sandwich immunosorbent assay. The note with it: 30 minutes, final peptide concentration 10^-9 M, Forskolin 1 uM. As to the method:
Enzyme linked sandwich immunosorbent assay was carried out on breast cancer cells (MF7) to study the modulation in levels of cAMP upon treatment with the peptides and their combinations. The cells were cultured in sterile 6 well plates at a density of 0.5×10^6/well in DMEM supplemented with 10% FCS, and allowed to adhere overnight. The medium was changed to DMEM and the cells were treated with appropriate concentrations of the peptide and its combinations, as shown in Table-IV, for 30 minutes, such that in each case the final peptide concentration was 10^−9M.
The cells were coincubated with Forskolin at a concentration of 1 uM. The cells were scraped using a cell scraper and pelleted. The cell pellet was suspended in appropriate resuspension buffer (50 mM Tris, containing EDTA, 0.2 mM phenyl methyl sulfonyl fluoride (PMSF), 1 ug/ml pepstatin and 0.5 ug/ml leupeptin adjusted to pH 7.4). The cell extracts were transferred to microcentrifuge tubes and centrifuged for 5 minutes at 10000×g. cAMP standards ranging in concentrations from 200 units/ml to 0 units/ml were prepared immediately prior to the start of the assay. Fluorescein isothiocyanate (FITC) conjugated monoclonal antibody directed to cAMP was added to microtitre wells precoated with primary monoclonal antibody against cAMP. 50 ul of sample lysates, and cAMP standards were added in duplicates in the microtitre wells containing both the monoclonals to cAMP. The wells were incubated at room temperature for 2 hours. The microtitre wells were washed thrice with appropriate wash buffer (PBS 50 mM, with Tween 0.5%) and the appropriate dilution of anti FITC horse radish peroxidase conjugate was added and incubated for 30 minutes. The microtitre wells were washed thrice with the wash buffer and subsequently with distilled water. Tetra-methylbenzidine was added to each well and incubated in dark for 30 minutes at room temperature. The absorbance was measured in each well at dual wavelength of 450/595 nm within 30 minutes of the addition of stop solution and the amount of cAMP present in the cell samples calculated.

The subject of assay [2] is VEGF secreted by human breast adenocarcinoma cells (MDA.MB.453). The assay is described as follows: VEGF secretion ELISA. As to conditions: 4 hours, each peptide 10^-8 M. As to the method:
Human breast adenocarcinoma cells (MDA.MB.453) were plated at the density of 8-10×10^5 cells per 2 ml in a six well plate. After an overnight incubation of cells at 37° C., individual peptides and different combinations of the peptides as shown in Table VIII were added to different wells such that the final concentration of each peptide was 10^−8 M. The untreated wells served as controls. The plates were incubated for 4 hours at 37° C. The medium was collected from all the wells (control and treated) and spun down at 2000 r.p.m to remove the cellular material. The supernatant was collected and used for ELISA (Quantikine human VEGF, R&D Systems). The assay employs the quantitative sandwich enzyme immunoassay technique. A monoclonal antibody specific for VEGF has been pre-coated onto a microplate. Standards and samples were pipeted into the wells and VEGF present was bound by the immobilized antibody. After washing away the unbound substances, an enzyme-linked polyclonal antibody specific for VEGF was added to the wells. Following a wash to remove any unbound antibody-enzyme reagent, a substrate solution was added to the wells and color developed in proportion to the amount of VEGF bound in the initial step. The optical density of each well was determined within 30 minutes using a microplate reader set to 450 nm and reference wavelength at 540 nm.

The subject of assay [3] is Caspase-3 in PA-1 (Ovary) cells. In words: Caspase-3 induction, colorimetric DEVD-pNA, PA-1. The note with it: 6 hours, each peptide 10^-8 M. The protocol:
PA-1 (Ovary) cells were cultured in 25 cm^2 tissue culture flasks at 37° C. in a humidified incubator containing 5% CO2. When cultures reached pre-confluence individual peptides of the combination and different combinations of the peptides as shown in Table VII were added to different flasks such that the final concentration of each peptide in the flask was 10^−8 M. The untreated flasks served as controls. The cells were incubated with drug for 6 hours.
After 6 hours of incubation cells were collected by trypsin treatment followed by centrifugation at 2000 r.p.m. for 10 minutes. The supernatant was gently removed and discarded and Lysis Buffer was added to the cell pellet (25 ul of lysis buffer per 1×10^4 cells I a 15 ml conical tube) and incubated on ice for 10 minutes and centrifuged at 10,000-×g for 1 minute. 50 ul of supernatant(cell lysate) was transferred to the wells of a 96-well plate. 2×Reaction buffer was prepared by adding 10 ul of fresh DTT stock per 1 ml of 2×Reaction Buffer. […] Following incubation the plate was read on a microplate reader at 405 nm-wavelength light the level of caspase enzymatic activity in the cell lysate was directly proportional to the color reaction. The induction of caspase activity by the subcombinations was calculated as a percentage of control using the formula [(Sample OD/Control OD)−1]*100.

Assay [4] has as its system tyrosine phosphatase in pancreatic cancer cells (MiaPaCa2). In words: Tyrosine phosphatase induction, colorimetric. The note with it: 30 minutes, final peptide concentration 10^-9 M. As to the method: The quantitation of tyrosine phosphatase was carried out colorimetrically by using their synthetic biotin labeled tyrosine phosphorylated peptide substrates. The enzyme reaction was quenched by the addition of a specific inhibitor, and the phosphorylated and dephosphorylated substrate is immobilized by binding to the streptavidin coated microtitre plate. The fraction of the unmetabolized substrate is determined by its anti phospho tyrosine antibody directly conjugated to peroxidase.
The cells were cultured in sterile 6 well plates at a density of 0.5×10^6/ well in DMEM supplemented with 10% FCS, and allowed to adhere overnight. The medium was changed to DMEM. The cells were treated with appropriate concentrations peptide and their combinations shown in Table VI, for 30 minutes, such that in each case the final peptide concentration was 10^−9M.
The cells were lysed in appropriate lysis buffer (50 mM Tris, containing 0.2 mM PMSF, 1 ug/ml pepstatin and 0.5 ug/ml leupeptin adjusted to pH 7.4). The cell extracts were transferred to microcentrifuge tubes and centrifuged for 5 minutes at 10000×g.
The quantitation of phosphatase enzyme activity was performed with 30 ul of specific substrates and the reaction was quenched with the addition of 100 uM sodium orthvanadate. […] After 3 washings, 100 ul of the substrate POD was added to the wells, and the absorbance was read at 405 nm.

In the case of `CCCC(=O)N[C@H](Cc1ccccc1)C(=O)N[C@@H](CCC(N)=O)C(=O)N[C@@H](Cc1c[nH]c2ccccc12)C(=O)N[C@@H](C)C(=O)N[C@H](C(=O)NC(C)(C)C(=O)N[C@@H](Cc1c[nH]cn1)C(=O)N[C@@H](CC(C)C)C(N)=O)C(C)C` [SEQ ID NO:2, Butanoyl-D-Phe-Gln-Trp-Ala-Val-Aib-His-Leu-NH2] (Butyryl-[dF]QWAV[Aib]HL-NH2), the “Camp (% of Control)” value in assay [1] came to 18%.
`C[C@@H](O)[C@H](NC(=O)[C@H]1NC(=O)C2(CCCC2)NC(=O)[C@H](CCCN)NC(=O)[C@@H](Cc2c[nH]c3ccccc23)NC(=O)[C@H](Cc2ccc(O)cc2)NC(=O)[C@@H](NC(=O)[C@H](N)Cc2ccccc2)CSSC1(C)C)C(N)=O` [SEQ ID NO:4, D-Phe-Cys-Tyr-D-Trp-Om-Ac5c -Pen-Thr-NH2]: in assay [2], the “% INHIBITION of VEGF secretion” value is given as 12.4 ± 2.3%. The “Camp (% of Control)” value in assay [1] is reported as 15%. Further, the “% INDUCTION of Caspase-3” value in assay [3] is reported as 12.4%. For the same molecule, the “% Induction of Tyrosine phosphatase” value in assay [4] is 10%.
`CSCC[C@H](NC(=O)[C@@H](N)CC(C)C)C(=O)N[C@@H](Cc1ccc(O)cc1)C(=O)N1CCC[C@H]1C(=O)N[C@H](C(=O)N[C@@H](Cc1ccc(O)cc1)C(=O)N[C@@H](CC(C)C)C(=O)N[C@@H](CCCCN)C(=O)O)[C@@H](C)O` [SEQ ID NO:1, Leu-Met-Tyr-Pro-Thr-Tyr-Leu-Lys-OH] (H-LMYPTYLK-OH; N-terminus assumed): in assay [1], the “Camp (% of Control)” value is on record as 30%.
On to `CC(C)C[C@H](NC(=O)[C@@H](Cc1c[nH]c2ccccc12)NC(=O)[C@H](Cc1ccccc1)NC(=O)[C@@H](Cc1c[nH]c2ccccc12)NC(=O)[C@H](CCC(N)=O)NC(=O)[C@@H](Cc1ccccc1)NC(=O)[C@@H]1CCCN1C(=O)[C@H](CCCCN)NC(=O)[C@@H]1CCCN1C(=O)[C@H](N)CCCNC(=N)N)C(=O)NC1(C(N)=O)CCCC1` [SEQ ID NO:3, D-Arg-Pro-Lys-Pro-D-Phe-Gln-D-Trp-Phe-D-Trp-Leu-Ac5c-NH2] (H-[dR]PKP[dF]Q[dW]F[dW]L[Ac5c]-NH2; N-terminus assumed), for which the “% INHIBITION of VEGF secretion” value in assay [2] is recorded as 17.5 ± 1.9%. Moreover, in assay [1], the “Camp (% of Control)” value turned out to be 14%. Further, the “% INDUCTION of Caspase-3” value in assay [3] turned out to be 19.5%. Besides, the “% Induction of Tyrosine phosphatase” value in assay [4] stood at 12%.
